Experimental data: patent US11242346B2, “Mechanistic target of rapamycin signaling pathway inhibitors and therapeutic applications thereof” (SUZHOU KINTOR PHARMACEUTICALS, INC., priority 2016, dated 2022)

Columns and labels:
PC-3 = experiment: NCI60 panel growth inhibition, PC-3; format: cell-based; conditions: Homo sapiens
Experimental: (§1) Cell growth inhibitory activities against cancer cells of the present compounds were also evaluated by submitting selected the example compounds to US NCI-Chemotherapeutic Agents Repository for screening against NCI60 panel. The United States NCI-60 platform is a cancer cell platform established with 60 different human cancer cell lines from 9 different kinds of organs. This platform represents the biological characteristics of the corresponding tumor type. The drugs were screened by measuring the ability of each test compound at a range of concentrations to inhibit the growth of various tumor cells.

NCI-H460 = experiment: NCI60 panel growth inhibition, NCI-H460; format: cell-based; conditions: Homo sapiens
Experimental: as §1

VEGF2 = VEGF2 (Homo sapiens, UniProt P35968); experiment: SelectScreen Profiling, Z'-LYTE kinase assay, VEGF2; format: biochemical; conditions: 1 μM compound, ATP at Km, read-out: VEGF 2 inh % @1 μM
From the text: (§2) Some of the example compounds were submitted to Life Technologies Corporation SelectScreen® Profiling Service to test their potency in inhibiting the kinase catalytic activities of mTOR, PI3Kα, VEGF2, FGFR1, HER1 (EGFR) and HER2. A concentration of ATP at the Km of the corresponding kinase was used for all assays. The mTOR (FRAP1), VEGF2, FGFR1, HER1 (EGFR) and HER2 assays used Z′-LYTE® technology. The PI3Kα assay used Adapta® technology. The symbol “inh %” as used herein generally refers to inhibition percentage.

PI3Kα = PI3Kα (Homo sapiens, UniProt P42336); experiment: SelectScreen Profiling, Adapta kinase assay, PI3Kα; format: biochemical; conditions: 0.1 μM compound, ATP at Km, read-out: PI3Kα inh % @0.1 μM
[1] = system: mammalian tumor cell lines such as PC-3, LNCAP, U87, Huh-7, HepG2 and MDA-MB-468; experiment: Cell proliferation/survival MTT assay in tumor cell lines; format: cell-based; conditions: 5 days (120 h) culture; cell line not specified; read-out: IC50, inhibition of tumor cell growth (MTT)
Experimental: The cytotoxic or cytostatic activity of Formula I-III exemplary compounds was measured by establishing proliferating mammalian tumor cell lines such as PC-3, LNCAP, U87, Huh-7, HepG2 and MDA-MB-468 in a cell culture medium, adding a test compound, culturing the cells for a period of 5 days by measuring cell viability via MTT assays. Dose response data were obtained for each test compound and the degree of inhibition of tumor cell growth was expressed as an IC50 value. […] For example. For example, compounds of example 14, 15, 46,29, 45, 49, 122, 88, 54, 55, 58, 59, 63, 64, 66, 67, 68, 113, 86, 90.
PC-3 (or U87) cells were seeded in 96-well plates at low density (at 2,000 cells per well) in media supplemented with 10% FBS (growth media) and transferred to serum-free media (1% FBS) after 24 h. Designated concentrations of drug were added to each well. The cells were incubated for 120 h. At the end of drug exposure, 20 μL/well of MTT solution was added. After 4 h at 37° C. in a humidified 5% CO2 atmosphere, the absorbance at 490 nm was recorded by using a microplate reader. IC50 was calculated using GraphPad Prism version 5 for Windows. The curves were fit using a nonlinear regression model with a log (inhibitor) versus response formula.

HCT-116 = experiment: NCI60 panel growth inhibition, HCT-116; format: cell-based; conditions: Homo sapiens
Experimental: as §1

NCI-H23 = experiment: NCI60 panel growth inhibition, NCI-H23; format: cell-based; conditions: Homo sapiens
Experimental: as §1

MCF-7 = experiment: NCI60 panel growth inhibition, MCF-7; format: cell-based; conditions: Homo sapiens, MCF7
Experimental: as §1

[2] = Rat pharmacokinetic study (IV and PO); format: in vivo; conditions: for AUC(0-t) / Cmax / MRT / clearance / half-life / Tmax / bioavailability: blood; for bioavailability: PO 10 mg/kg vs IV 5 mg/kg, read-out: Fpo (oral bioavailability)
Experimental: (§3) Active mTOR inhibitors in enzymatic and/or cell-based assays herein were evaluated for pharmacokinetic properties. Preferable compounds are with pharmacokinetic properties of low clearance, long half-life and/or good oral bioavailability (Fpo). In vitro, selected example compounds were evaluated for metabolic stability by incubating with human liver microsome (HLM) for 60 min. Compounds that were metabolized slower (i.e. higher % remaining) are preferred. […] The more metabolic stable example compounds in the HLM assay were further evaluated for pharmacokinetic properties in vivo. In a representative experiment, selected example compounds were dosed to rats intravenously (IV, 5 mg/kg, 30% PEG400+30% PG+1% DMSO in saline) and orally (PO, 10 mg/kg, 2.4% DMSO+0.1% Tween80 in 0.5% CMC-Na), rat blood samples were taken at designed time points after dosing and analyzed for tested drug concentrations using LC-MS/MS. Pharmacokinetic parameters were derived from the time curve of drug concentrations.

mTOR (FRAP1) = mTOR (FRAP1) (Homo sapiens, UniProt P42345); experiment: SelectScreen Profiling, Z'-LYTE kinase assay, mTOR (FRAP1); format: biochemical; conditions: 0.1 μM compound, ATP at Km, read-out: mTOR inh% @0.1 μM
From the text: as §2

SKOV-3 = experiment: NCI60 panel growth inhibition, SKOV-3; format: cell-based; conditions: Homo sapiens, SK-OV-3
Experimental: as §1

HER1 (EGFR) = HER1 (EGFR) (Homo sapiens, UniProt P00533); experiment: SelectScreen Profiling, Z'-LYTE kinase assay, HER1 (EGFR); format: biochemical; conditions: 1 μM compound, ATP at Km, read-out: HER1 inh % @1 μM
From the text: as §2

FGFR1 = FGFR1 (Homo sapiens, UniProt P11362); experiment: SelectScreen Profiling, Z'-LYTE kinase assay, FGFR1; format: biochemical; conditions: 1 μM compound, ATP at Km, read-out: FGFR 1 inh % @1 μM
From the text: as §2

HER2 = HER2 (Homo sapiens, UniProt P04626); experiment: SelectScreen Profiling, Z'-LYTE kinase assay, HER2; format: biochemical; conditions: 1 μM compound, ATP at Km, read-out: HER2 inh % @1 μM
From the text: as §2

[3] = Metabolic stability in human liver microsome (HLM); format: in vitro ADME; conditions: incubation with human liver microsome for 60 min
Experimental: as §3

NCI 60 human cell lines = experiment: NCI60 panel growth inhibition, average over 60 cell lines; format: cell-based
Experimental: as §1

A549 = experiment: NCI60 panel growth inhibition, A549; format: cell-based; conditions: Homo sapiens
Experimental: as §1

[4] = Stability noted on isolation of the compound; format: physicochemical; conditions: after Prep-TLC purification
Experimental: To a mixture of compound 33 (80 mg, 0.28 mmol), compound 2 (22 mg, 0.09 mmol) and 2M Na2CO3 (1.2 mL) was added dioxane (6 mL). N2 was bubbled through the solution for 1.5 minutes, at which time Pd(dppf)Cl2 (12 mg, […]) was added. The reaction was stirred at 100° C. for 1 hour under N2. After cooling to room temperature, Ethyl acetate was added and the resulting slurry was sonicated and filtered. Additional ethyl acetate was used to wash the solid. The combined organic extracts were concentrated and the crude material was purified by Prep-TLC using Petroleum ether:Ethyl acetate (3:1) affording to Example 33 (10 mg),and the compound was unstable. ^1H NMR (400 MHz, CDCl3): δ 8.83 (s, 1H), 7.68-7.64 (m, 1H), 6.74-6.78 (m, 1H), 6.70-6.73 (m, 1H), 5.53 (bs, 2H), 4.11-4.04 (m, 4H), 3.87-3.82 (m, 4H). ESI-MS (M+H)^+: 366.1

Chain of HER1 (EGFR) (P00533 25-1210): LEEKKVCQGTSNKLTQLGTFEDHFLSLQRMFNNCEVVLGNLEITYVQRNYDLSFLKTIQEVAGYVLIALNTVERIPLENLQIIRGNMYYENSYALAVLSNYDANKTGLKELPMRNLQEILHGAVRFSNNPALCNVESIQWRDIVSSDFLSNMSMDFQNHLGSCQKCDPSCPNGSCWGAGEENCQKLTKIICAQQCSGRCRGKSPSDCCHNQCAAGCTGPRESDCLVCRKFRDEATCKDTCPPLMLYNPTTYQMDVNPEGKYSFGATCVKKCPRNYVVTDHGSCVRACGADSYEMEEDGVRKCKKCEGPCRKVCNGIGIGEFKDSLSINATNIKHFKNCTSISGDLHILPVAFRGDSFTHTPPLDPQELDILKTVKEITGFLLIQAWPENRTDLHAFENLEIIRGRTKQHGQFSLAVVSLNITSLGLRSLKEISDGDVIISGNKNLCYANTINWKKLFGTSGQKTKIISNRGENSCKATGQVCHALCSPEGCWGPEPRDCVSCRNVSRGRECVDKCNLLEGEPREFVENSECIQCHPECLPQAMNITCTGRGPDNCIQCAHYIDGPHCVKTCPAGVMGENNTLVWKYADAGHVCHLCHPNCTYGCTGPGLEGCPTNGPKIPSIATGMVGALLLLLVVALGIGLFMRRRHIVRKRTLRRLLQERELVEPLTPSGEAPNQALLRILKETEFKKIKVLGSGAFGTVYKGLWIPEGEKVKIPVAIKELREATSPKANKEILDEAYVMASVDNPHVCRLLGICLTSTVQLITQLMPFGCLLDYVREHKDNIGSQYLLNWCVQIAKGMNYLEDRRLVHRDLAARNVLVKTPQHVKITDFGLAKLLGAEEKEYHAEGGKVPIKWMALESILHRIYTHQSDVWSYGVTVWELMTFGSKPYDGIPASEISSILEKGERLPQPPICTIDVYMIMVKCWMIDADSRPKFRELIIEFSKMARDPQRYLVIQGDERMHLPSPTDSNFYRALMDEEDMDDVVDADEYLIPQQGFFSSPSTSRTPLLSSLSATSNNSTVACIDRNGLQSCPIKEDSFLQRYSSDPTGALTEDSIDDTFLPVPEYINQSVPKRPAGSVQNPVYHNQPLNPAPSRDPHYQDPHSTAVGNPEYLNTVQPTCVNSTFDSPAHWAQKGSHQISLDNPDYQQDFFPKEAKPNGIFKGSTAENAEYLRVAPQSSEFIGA
Chain of FGFR1 (P11362 22-822): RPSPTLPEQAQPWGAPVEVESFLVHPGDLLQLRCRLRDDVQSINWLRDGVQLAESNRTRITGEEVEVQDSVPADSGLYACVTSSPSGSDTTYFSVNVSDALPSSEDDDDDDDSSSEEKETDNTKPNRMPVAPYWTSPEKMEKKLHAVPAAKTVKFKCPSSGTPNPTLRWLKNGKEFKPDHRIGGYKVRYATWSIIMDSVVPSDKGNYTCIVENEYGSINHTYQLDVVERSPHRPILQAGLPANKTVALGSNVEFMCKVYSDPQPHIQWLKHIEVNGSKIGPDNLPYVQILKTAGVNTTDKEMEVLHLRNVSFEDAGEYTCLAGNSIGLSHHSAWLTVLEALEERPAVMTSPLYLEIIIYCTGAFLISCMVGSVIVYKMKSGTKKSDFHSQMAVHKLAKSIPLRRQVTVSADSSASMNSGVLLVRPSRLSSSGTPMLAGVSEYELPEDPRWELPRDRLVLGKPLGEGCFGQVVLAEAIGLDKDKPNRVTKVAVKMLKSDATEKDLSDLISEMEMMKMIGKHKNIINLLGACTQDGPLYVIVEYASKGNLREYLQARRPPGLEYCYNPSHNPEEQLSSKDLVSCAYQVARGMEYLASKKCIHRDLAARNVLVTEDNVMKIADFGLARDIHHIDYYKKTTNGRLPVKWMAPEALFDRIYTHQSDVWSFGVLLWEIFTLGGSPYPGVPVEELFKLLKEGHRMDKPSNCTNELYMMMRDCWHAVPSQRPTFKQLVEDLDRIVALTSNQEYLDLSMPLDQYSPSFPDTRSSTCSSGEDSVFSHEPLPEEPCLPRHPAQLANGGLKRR
Chain of VEGF2 (P35968 20-1356): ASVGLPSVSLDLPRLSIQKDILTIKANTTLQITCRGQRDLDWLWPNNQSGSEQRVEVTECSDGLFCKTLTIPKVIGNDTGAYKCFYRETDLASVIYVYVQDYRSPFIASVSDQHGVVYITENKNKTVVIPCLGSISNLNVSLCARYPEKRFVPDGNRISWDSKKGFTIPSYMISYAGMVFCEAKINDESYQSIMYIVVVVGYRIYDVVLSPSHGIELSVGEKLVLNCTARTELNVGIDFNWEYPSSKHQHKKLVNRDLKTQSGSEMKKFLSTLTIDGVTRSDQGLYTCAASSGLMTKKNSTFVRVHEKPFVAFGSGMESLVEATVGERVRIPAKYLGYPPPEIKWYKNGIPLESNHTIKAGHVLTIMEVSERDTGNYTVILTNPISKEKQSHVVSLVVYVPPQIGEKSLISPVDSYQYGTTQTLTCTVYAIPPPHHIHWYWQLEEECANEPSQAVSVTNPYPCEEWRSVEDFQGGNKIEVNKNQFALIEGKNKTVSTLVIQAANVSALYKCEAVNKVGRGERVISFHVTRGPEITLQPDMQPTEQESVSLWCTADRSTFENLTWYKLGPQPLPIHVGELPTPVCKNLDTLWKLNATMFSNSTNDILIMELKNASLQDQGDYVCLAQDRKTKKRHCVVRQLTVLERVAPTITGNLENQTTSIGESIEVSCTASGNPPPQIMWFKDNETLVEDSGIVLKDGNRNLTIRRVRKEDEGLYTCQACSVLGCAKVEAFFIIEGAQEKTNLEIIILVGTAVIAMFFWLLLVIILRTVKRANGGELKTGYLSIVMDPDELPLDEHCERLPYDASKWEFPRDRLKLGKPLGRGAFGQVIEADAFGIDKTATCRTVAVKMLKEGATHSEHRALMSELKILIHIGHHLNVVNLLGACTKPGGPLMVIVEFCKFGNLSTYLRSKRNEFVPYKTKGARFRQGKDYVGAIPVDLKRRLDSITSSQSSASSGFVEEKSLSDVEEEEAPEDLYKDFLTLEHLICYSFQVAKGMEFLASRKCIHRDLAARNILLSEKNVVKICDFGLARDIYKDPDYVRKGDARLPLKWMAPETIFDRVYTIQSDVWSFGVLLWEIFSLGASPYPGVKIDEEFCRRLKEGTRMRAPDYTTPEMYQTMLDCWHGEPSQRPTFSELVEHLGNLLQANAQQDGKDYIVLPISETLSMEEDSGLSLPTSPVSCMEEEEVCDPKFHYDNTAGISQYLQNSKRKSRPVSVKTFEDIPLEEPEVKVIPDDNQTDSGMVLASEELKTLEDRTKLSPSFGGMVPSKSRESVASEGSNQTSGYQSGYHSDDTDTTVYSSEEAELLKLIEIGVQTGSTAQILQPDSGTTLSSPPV
Chain of PI3Kα (P42336 whole entry): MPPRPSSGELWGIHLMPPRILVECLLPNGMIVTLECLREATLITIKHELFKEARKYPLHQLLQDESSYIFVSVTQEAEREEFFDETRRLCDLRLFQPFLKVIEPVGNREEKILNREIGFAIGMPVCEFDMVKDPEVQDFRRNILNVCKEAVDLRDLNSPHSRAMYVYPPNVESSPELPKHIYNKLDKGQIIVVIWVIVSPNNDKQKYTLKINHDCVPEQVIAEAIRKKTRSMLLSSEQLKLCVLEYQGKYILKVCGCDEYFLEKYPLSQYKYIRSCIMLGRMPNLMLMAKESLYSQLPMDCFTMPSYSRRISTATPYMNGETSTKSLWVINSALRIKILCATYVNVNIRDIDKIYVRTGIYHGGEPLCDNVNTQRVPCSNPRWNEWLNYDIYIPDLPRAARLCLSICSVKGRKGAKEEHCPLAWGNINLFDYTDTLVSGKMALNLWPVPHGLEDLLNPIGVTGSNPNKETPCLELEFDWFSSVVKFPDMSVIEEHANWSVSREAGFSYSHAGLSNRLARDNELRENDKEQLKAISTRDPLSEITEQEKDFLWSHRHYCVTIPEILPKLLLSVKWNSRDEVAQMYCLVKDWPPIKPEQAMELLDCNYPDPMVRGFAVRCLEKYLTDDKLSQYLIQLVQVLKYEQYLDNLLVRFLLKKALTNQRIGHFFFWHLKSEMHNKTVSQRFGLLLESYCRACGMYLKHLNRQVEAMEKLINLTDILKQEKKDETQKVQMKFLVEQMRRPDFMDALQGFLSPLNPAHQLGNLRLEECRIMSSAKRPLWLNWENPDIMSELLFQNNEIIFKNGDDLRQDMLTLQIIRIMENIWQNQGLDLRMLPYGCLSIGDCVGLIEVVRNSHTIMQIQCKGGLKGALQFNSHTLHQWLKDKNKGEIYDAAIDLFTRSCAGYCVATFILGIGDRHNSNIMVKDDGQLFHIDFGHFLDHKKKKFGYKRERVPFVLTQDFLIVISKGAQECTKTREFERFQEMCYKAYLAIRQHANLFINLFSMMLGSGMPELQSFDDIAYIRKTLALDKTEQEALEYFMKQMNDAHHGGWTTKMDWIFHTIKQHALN
Chain of PI3Kα (P27986 whole entry partner): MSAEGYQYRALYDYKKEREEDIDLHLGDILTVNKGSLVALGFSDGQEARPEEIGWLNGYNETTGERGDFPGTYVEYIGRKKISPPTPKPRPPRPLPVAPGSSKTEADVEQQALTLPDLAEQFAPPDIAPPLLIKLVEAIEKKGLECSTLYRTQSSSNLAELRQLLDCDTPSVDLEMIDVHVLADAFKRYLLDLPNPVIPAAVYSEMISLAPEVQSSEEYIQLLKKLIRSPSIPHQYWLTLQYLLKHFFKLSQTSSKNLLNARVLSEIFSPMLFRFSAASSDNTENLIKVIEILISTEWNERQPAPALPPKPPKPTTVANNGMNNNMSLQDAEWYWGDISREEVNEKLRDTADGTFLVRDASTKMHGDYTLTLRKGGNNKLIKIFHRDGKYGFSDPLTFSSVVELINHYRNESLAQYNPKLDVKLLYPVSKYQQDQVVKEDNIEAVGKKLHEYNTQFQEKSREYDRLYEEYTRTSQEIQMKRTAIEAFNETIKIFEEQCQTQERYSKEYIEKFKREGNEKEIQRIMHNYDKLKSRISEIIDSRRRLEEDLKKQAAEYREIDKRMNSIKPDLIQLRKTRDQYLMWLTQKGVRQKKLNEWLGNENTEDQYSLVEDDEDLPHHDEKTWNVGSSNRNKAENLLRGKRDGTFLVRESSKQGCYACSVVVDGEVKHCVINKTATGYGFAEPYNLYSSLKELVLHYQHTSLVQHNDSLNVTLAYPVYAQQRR

| Compound | GI50 (PC-3) | GI50 (NCI-H460) | inhibition at 1 µM (VEGF2) | inhibition at 0.1 µM (PI3Kα) | IC50 [1] | GI50 (HCT-116) | GI50 (NCI-H23) | GI50 (MCF-7) | AUC(0-t) ([2]; IV 5 mg/kg) | Cmax ([2]; IV 5 mg/kg) | MRT ([2]; IV 5 mg/kg) | clearance ([2]; IV 5 mg/kg) | half-life ([2]; IV 5 mg/kg) | inhibition at 0.1 µM (mTOR (FRAP1)) | GI50 (SKOV-3) | inhibition at 1 µM (HER1 (EGFR)) | inhibition at 1 µM (FGFR1) | inhibition at 1 µM (HER2) | metabolic stability in HLM [3] | GI50 (NCI 60 human cell lines) | further results |
| --- | --- | --- | --- | --- | --- | --- | --- | --- | --- | --- | --- | --- | --- | --- | --- | --- | --- | --- | --- | --- | --- |
| OCCNC(=S)Nc1ccc(-c2nc(N3C[C@H]4CC[C@@H](C3)O4)c3cccn3n2)cc1 [Example 122] | 41 nM | 35.9 nM | -10% | 8% | < 500 nM | 364 nM | 70.3 nM | 26.8 nM | 11400 ng·h/mL | 4700 ng/mL | 3.03 h | 7.35 mL/min/kg | 2.13 h | 94% | 18.9 nM | 1% | 0% | -1% | metabolically stable | 62 nM | CL ([2]; PO 10 mg/kg): 13.3 mL/min/kg; AUC(0-t) ([2]; PO 10 mg/kg): 11900 ng·h/mL; Cmax ([2]; PO 10 mg/kg): 1910 ng/mL; MRT ([2]; PO 10 mg/kg): 7.33 h; Tmax ([2]; PO 10 mg/kg): 0.833 h; half-life ([2]; PO 10 mg/kg): 4.72 h; bioavailability [2]: 48%; GI50 (A549): 110 nM |
| CN1CCN(C(=O)c2ccc(NC(=O)Nc3ccc(-c4nc(N5CCOCC5)c5cccn5n4)cc3)cc2)CC1 [Example 46] | 23 nM | 59.7 nM | 11% | – | < 500 nM | 60.2 nM | 96.2 nM | 14.4 nM | 8760 ng·h/mL | 8460 ng/mL | 3.66 h | 8.28 mL/min/kg | 3.25 h | 86% | 26.8 nM | 0% | -3% | -6% | metabolically stable | 59 nM | GI50 (A549): 66.5 nM |
| O=C(NCCO)Nc1ccc(-c2nc(N3CCOCC3)c3cccn3n2)cc1 [Example 29] | – | – | 11% | 9% | < 500 nM | – | – | – | 16600 ng·h/mL | 11900 ng/mL | 1.84 h | 4.83 mL/min/kg | 1.49 h | 94% | – | -1% | -1% | -7% | metabolically stable | – | CL ([2]; PO 10 mg/kg): 99 mL/min/kg; AUC(0-t) ([2]; PO 10 mg/kg): 1650 ng·h/mL; Cmax ([2]; PO 10 mg/kg): 380 ng/mL; MRT ([2]; PO 10 mg/kg): 2.9 h; Tmax ([2]; PO 10 mg/kg): 2 h; half-life ([2]; PO 10 mg/kg): 1.12 h; bioavailability [2]: 5% |
| CN(C)C1CCN(C(=O)c2ccc(NC(=O)Nc3ccc(-c4nc(N5CCOCC5)c5cccn5n4)cc3)cc2)CC1 [Example 15] | 25 nM | 67 nM | 8% | 54% | < 500 nM | 65.7 nM | 123 nM | < 10 nM | 3430 ng·h/mL | 4710 ng/mL | 5.57 h | 17.8 mL/min/kg | 4.98 h | 98% | 46.3 nM | -2% | 4% | -7% | metabolically stable | 76 nM | GI50 (A549): 54.5 nM |
| Nc1ncc(-c2nc(N3CCOCC3)c3cccn3n2)c(C(F)(F)F)n1 [Example 33] | – | – | – | – | – | – | – | – | – | – | – | – | – | – | – | – | – | – | – | – | stability of the isolated compound [4]: unstable |
| O=C(Nc1ccc(-c2nc(N3CCOCC3)c3cccn3n2)cc1)Nc1cccnc1 [Example 14] | 51 nM | 142 nM | 8% | 11% | < 500 nM | 41 nM | 269 nM | 48.3 nM | 10100 ng·h/mL | 6560 ng/mL | 1.7 h | 10.3 mL/min/kg | 1.3 h | 87% | 98.7 nM | -1% | 1% | -8% | metabolically stable | 120 nM | CL ([2]; PO 10 mg/kg): 30.13 mL/min/kg; AUC(0-t) ([2]; PO 10 mg/kg): 4900 ng·h/mL; Cmax ([2]; PO 10 mg/kg): 784 ng/mL; MRT ([2]; PO 10 mg/kg): 5.71 h; Tmax ([2]; PO 10 mg/kg): 1 h; half-life ([2]; PO 10 mg/kg): 3.28 h; bioavailability [2]: 22%; GI50 (A549): 244 nM |
